Measured values from patent publication US7166617B2, “Cyclic amide derivatives” (Mitsubishi Pharma Corporation, priority 2000, dated 2007).
Counter-ions that a name gives are not always drawn.

Target: T1, sigma 2 receptor (Rattus norvegicus, UniProt Q5U3Y7)
T1 construct: A crude P2 membrane fraction was prepared from livers of male rats (Sprague-Dawley rats); from tissue; host or cells: rat liver (male Sprague-Dawley), crude P2 membrane fraction
T1 sequence (Q5U3Y7 1-176): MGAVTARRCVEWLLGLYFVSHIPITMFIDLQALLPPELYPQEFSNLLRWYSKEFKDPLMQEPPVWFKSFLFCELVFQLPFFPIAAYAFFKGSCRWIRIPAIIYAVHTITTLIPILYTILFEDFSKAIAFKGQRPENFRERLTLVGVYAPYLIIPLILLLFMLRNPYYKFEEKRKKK
Assay: Sigma 2-selective receptor binding inhibition test ([3H]-DTG, rat liver P2 membrane fraction)
Details: [3H]-DTG 1 nM, 500 nM pentazocine, P2 fraction of livers of male Sprague-Dawley rats, 25° C., 2 hours
Experimental: Sigma Binding Site-Binding Inhibition Test
A crude P2 membrane fraction was prepared from livers of male rats (Sprague-Dawley rats) according to a method described in the literature (X. He, et al., J. Med. Chem., 36, pp. 566–571, 1993). In the presence of 500 nM pentazocine and a control compound at various concentrations (haloperidol, 10^−10 to 10^−6 M) or a test ligand at various concentrations (10^−10 to 10^−5 M) together with a radioactive ligand, the P2 fraction (0.4 ml) was incubated in 50 mM Tris-HCl (pH 7.4, final volume: 0.5 ml) at 25° C. for 2 hours. The reaction mixture was rapidly filtered on a Brandel cell harvester using Whatman GF/B filter paper, which was immersed beforehand in 0.5% polyethyleneimine for 1 hour, to stop the reaction. The filter paper was washed 4 times with the ice cooled incubation buffer. The non-specific results were evaluated by using 1 μM haloperidol, and the scintillation analysis and the curve analysis were performed as described above.

`O=C(CN1CCC(CN2Cc3cc(Br)ccc3C2=O)CC1)c1ccc(F)cc1` [Example 3, 5-Bromo-2-[[1-[2-(4-fluorophenyl)-2-oxoethyl]piperidin-4-yl]methyl]isoindolin-1-one hydrochloride] and `O=C(CN1CCC(CN2Cc3ccc(Br)cc3C2=O)CC1)c1ccc(F)cc1` [Example 4, 6-Bromo-2-[[1-[2-(4-fluorophenyl)-2-oxoethyl]piperidin-4-yl]methyl]isoindolin-1-one hydrochloride] are within 1.5-fold of each other in Ki: 7 nM for the first, 7.6 nM for the second.

Compared with `O=C1c2ccc(Br)cc2CN1CC1CCN(CC(O)c2ccc(F)cc2)CC1` (racemic) [Example 17, (R,S)-5-Bromo-2-[[1-[2-(4-fluorophenyl)-2-hydroxyethyl]piperidin-4-yl]methyl]isoindolin-1-one hydrochloride], `O=C(CN1CCC(CN2Cc3cc(Cl)ccc3C2=O)CC1)c1ccc(F)cc1` [Example 8, 5-Chloro-2-[[1-[2-(4-fluorophenyl)-2-oxoethyl]piperidin-4-yl]methyl]isoindolin-1-one hydrochloride] is 7.7-fold lower in Ki: 24 nM for the first, 3.1 nM for the second. The second binds more tightly here.

Compared with `O=C(CN1CCC(CN2Cc3c(F)cccc3C2=O)CC1)c1ccc(F)cc1` [Example 6, 4-Fluoro-2-[[1-[2-(4-fluorophenyl)-2-oxoethyl]piperidin-4-yl]methyl]isoindolin-1-one hydrochloride], `O=C(CN1CCC(CN2Cc3c(Br)cccc3C2=O)CC1)c1ccc(F)cc1` [Example 2, 4-Bromo-2-[[1-[2-(4-fluorophenyl)-2-oxoethyl]piperidin-4-yl]methyl]isoindolin-1-one hydrochloride] is 3.1-fold lower in Ki: 8.7 nM for the first, 2.8 nM for the second.

Going from `COc1ccccc1CCN1CCC(CN2Cc3ccccc3C2=O)CC1` [Example 26, 2-[[1-[2-(2-Methoxyphenyl)ethyl]piperidin-4-yl]methyl]isoindolin-1-one hydrochloride] to `O=C1c2ccccc2CN1CC1CCN(CCc2c[nH]c3ccccc23)CC1` [Example 36, 2-[[1-[2-(Indol-3-yl)ethyl]piperidin-4-yl]methyl]isoindolin-1-one ½.fumarate], the Ki rises from 10 nM to 50 nM (5-fold).

Going from `COc1ccc2c(c1)CN(CC1CCN(CCc3ccc(F)cc3)CC1)C2=O` [Example 159, 5-Methoxy-2-[1-[2-(4-fluorophenyl)ethyl]piperidin-4-ylmethyl]isoindolin-1-one fumarate] to `COc1ccc2c(c1)CN(CC1CCN(CC(=O)c3ccc(F)cc3)CC1)C2=O` [Example 9, 5-Methyloxy-2-[[1-[2-(4-fluorophenyl)-2-oxoethyl]piperidin-4-yl]methyl]isoindolin-1-one hydrochloride], the Ki falls from 25 nM to 4.9 nM (5.1-fold).

Compared with `O=C1c2ccccc2CN1CC1CCN(CCOc2ccc(F)cc2)CC1` [Example 32, 2-[[1-[2-(4-Fluorophenyloxy)ethyl]piperidin-4-yl]methyl]isoindolin-1-one hydrochloride], `O=C(CCCN1CCC(CN2Cc3ccccc3C2=O)CC1)c1ccc(F)cc1` [Example 31, 2-[[1-[4-(4-Fluorophenyl)-4-oxobutyl]piperidin-4-yl]methyl]isoindolin-1-one hydrochloride] is 7.9-fold higher in Ki: 2.8 nM for the first, 22 nM for the second.

Going from `O=C(CN1CCC(CN2Cc3ccccc3C2=O)CC1)N1CCCCC1` [Example 50, 2-[[1-[2-Oxo-2-(piperidin-1-yl)ethyl]piperidin-4-yl]methyl]isoindolin-1-one fumarate] to `O=C(CN1CCC(CN2Cc3ccccc3C2=O)CC1)C1CCCCC1` [Example 84, 2-[[1-(2-Cyclohexyl-2-oxoethyl)piperidin-4-yl]methyl]isoindolin-1-one fumarate], the Ki falls from 14 nM to 3.4 nM (4.1-fold).

Going from `O=C(CN1CCC(CN2Cc3ccccc3C2=O)CC1)c1ccccc1` [Example 13, 2-[[1-(2-Phenyl-2-oxoethyl)piperidin-4-yl]methyl]isoindolin-1-one hydrochloride] to `O=C(CN1CCC(CN2Cc3ccccc3C2=O)CC1)c1ccc(F)cc1` [Example 1, 2-[[1-[2-(4-Fluorophenyl)-2-oxoethyl]piperidin-4-yl]methyl]isoindolin-1-one hydrochloride], the Ki rises from 6.6 nM to 13 nM (2-fold).

First: CC(C)(C)C(=O)CN1CCC(CN2Cc3ccccc3C2=O)CC1 [Example 24, 2-[[1-(3,3-Dimethyl-2-oxobutyl)piperidin-4-yl]methyl]isoindolin-1-one hydrochloride]
Second: O=C(CN1CCC(CN2CCc3ccccc3C2=O)CC1)c1ccc(F)cc1 [Example 137, 2-[[1-[2-(4-Fluorophenyl)-2-oxoethyl]piperidin-4-yl]methyl]-3,4-dihydroisoquinolin-1(2H)-one hydrochloride]
The Ki of the first is 1.7-fold higher: 13 nM for the first, 7.8 nM for the second. The second binds more tightly here.

Work on `O=C(CN1CCC(CN2Cc3cc(F)ccc3C2=O)CC1)c1ccc(F)cc1` [Example 154, 5-Fluoro-2-[[1-[2-(4-fluorophenyl)-2-oxoethyl]piperidin-4-yl]methyl]isoindolin-1-one hydrochloride] yielded a Ki of 16 nM.

Same assay, conditions: test compound 10 nM; [3H]-DTG 1 nM, 500 nM pentazocine, rat liver P2 fraction

Going from `COc1ccccc1SCCN1CCC(CN2Cc3ccccc3C2=O)CC1.O=C(O)/C=C/C(=O)O` [Example 110] to `CCCCn1cccc1C(=O)CN1CCC(CN2Cc3ccccc3C2=O)CC1.Cl` [Example 94, 2-[[1-[2-[2-(1-Butyl)pyrrolyl]-2-oxoethyl]piperidin-4-yl]methyl]isoindolin-1-one hydrochloride], the “Inhibitory rate against sigma 2 (%, 10 nM)” value rises from 68% to 83%.

Same assay, conditions: test compound 10 nM; [3H]-DTG 1 nM, 500 nM pentazocine, rat liver P2 fraction; read-out: Inhibitory rate against sigma 2 (%, 10 nM)

Going from `COc1ccccc1CCN1CCC(CN2Cc3cc(Br)ccc3C2=O)CC1` [Example 167, 2-[1-[2-(2-Methoxyphenyl)ethyl]piperidin-4-ylmethyl]-5-bromoisoindolin-1-one hydrochloride] to `COc1ccccc1CCN1CCC(CN2Cc3cc(C#N)ccc3C2=O)CC1` [Example 170, 5-Cyano-2-[1-[2-(2-methoxyphenyl)ethyl]piperidin-4-ylmethyl]isoindolin-1-one fumarate], the inhibition at 0.01 µM falls from 62% to 52%.

Going from `O=C1c2ccccc2CN1CC1CCN(CC(=O)N2CCc3ccccc32)CC1` [Example 51, 2-[[1-[2-(Indolin-1-yl)-2-oxoethyl]piperidin-4-yl]methyl]isoindolin-1-one fumarate] to `COc1ccccc1C(=O)CN1CCC(CN2Cc3ccccc3C2=O)CC1` [Example 72, 2-[[1-[2-(2-Methoxyphenyl)-2-oxoethyl]piperidin-4-yl]methyl]isoindolin-1-one fumarate], the inhibition at 0.01 µM falls from 74% to 55%.

Going from `O=C1c2ccccc2CN1CC1CCN(CCSc2ccccc2)CC1` [Example 109, 2-[[1-[2-(Phenylthio)ethyl]piperidin-4-yl]methyl]isoindolin-1-one fumarate] to `O=C1c2ccccc2CN1CC1CCN(CCSc2cccc(F)c2)CC1` [Example 113, 2-[[1-[2-(3-Fluorophenylthio)ethyl]piperidin-4-yl]methyl]isoindolin-1-one fumarate], the inhibition at 0.01 µM falls from 68% to 64%.

Compared with `O=C1c2cccc(F)c2CN1CC1CCN(CCOc2ccc(F)cc2)CC1` [Example 181, 4-Fluoro-2-[1-[2-(4-fluorophenoxy)ethyl]piperidin-4-ylmethyl]isoindolin-1-one fumarate], `O=C1c2ccc(Cl)cc2CN1CC1CCN(CCOc2ccc(F)cc2)CC1` [Example 178, 5-Chloro-2-[1-[2-(4-fluorophenoxy)ethyl]piperidin-4-ylmethyl]isoindolin-1-one fumarate] is lower in inhibition at 0.01 µM: 70% for the first, 50% for the second.

First: O=C1c2ccccc2CN1CC1CCN(CCOc2ccccc2F)CC1 [Example 117, 2-[[1-[2-(2-Fluorophenoxy)ethyl]piperidin-4-yl]methyl]isoindolin-1-one fumarate]
Second: O=C1c2ccccc2CN1CC1CCN(CCOc2ccccc2)CC1 [Example 114, 2-[[1-(2-Phenoxyethyl)piperidin-4-yl]methyl]isoindolin-1-one fumarate]
The inhibition at 0.01 µM of the first is higher: 52% for the first, 51% for the second.

Going from `O=C1c2ccccc2CN1CC1CCN(CCOc2cccc(F)c2)CC1` [Example 118, 2-[[1-[2-(3-Fluorophenoxy)ethyl]piperidin-4-yl]methyl]isoindolin-1-one fumarate] to `O=C1c2ccc(Br)cc2CN1CC1CCN(CCOc2ccc(F)cc2)CC1` [Example 177, 2-[1-[2-(4-Fluorophenyloxy)ethyl]piperidin-4-ylmethyl]-5-bromoisoindolin-1-one hydrochloride], the inhibition at 0.01 µM rises from 50% to 55%.

Compared with `Cc1cccc(C(=O)CN2CCC(CN3Cc4ccccc4C3=O)CC2)c1` [Example 78, 2-[[1-[2-(3-Tolyl)-2-oxoethyl]piperidin-4-yl]methyl]isoindolin-1-one fumarate], `O=C(CN1CCC(CN2Cc3ccccc3C2=O)CC1)c1cccc(Cl)c1` [Example 76, 2-[[1-[2-(3-Chlorophenyl)-2-oxoethyl]piperidin-4-yl]methyl]isoindolin-1-one fumarate] is lower in inhibition at 0.01 µM: 86% for the first, 84% for the second.

Going from `O=C(CN1CCC(CN2Cc3ccccc3C2=O)CC1)N1CCCCC1` [Example 50, 2-[[1-[2-Oxo-2-(piperidin-1-yl)ethyl]piperidin-4-yl]methyl]isoindolin-1-one fumarate] to `O=C(CN1CCC(CN2Cc3ccccc3C2=O)CC1)C1CCCCC1` [Example 84, 2-[[1-(2-Cyclohexyl-2-oxoethyl)piperidin-4-yl]methyl]isoindolin-1-one fumarate], the inhibition at 0.01 µM rises from 52% to 58%.

`O=C1c2ccccc2CN1CC1CCN(CC(O)C2CCCCC2)CC1` (centres unmarked) [Example 85, 2-[[1-(2-Cyclohexyl-2-hydroxyethyl)piperidin-4-yl]methyl]isoindolin-1-one fumarate] gave an inhibition at 0.01 µM of 59%.
